Measurements reported in patent US9643991B2, “Process for preparing a novel crystalline form of emamectin benzoate and use the same” (ROTAM AGROCHEM INTERNATIONAL CO., LTD, priority 2015, dated 2017).

Columns and labels:
[1] = Residue of diluted SG formulations passed through the wet sieve; type: physicochemical
Method: The procedure in Example 5 was repeated by using emamectin benzoate crystalline forms A and B mentioned in U.S. Pat. No. 6,486,195.
SG samples prepared in Examples 5 and 6 were diluted with water and their residues were compared by passing through the wet sieve.

[2] = Stability of the crystalline modification during prolonged storage; type: physicochemical
[3] = cited from earlier work
[4] = test system: Lepidoptera pole larvae and many other pests; conditions: cited from earlier work

Row | Substance | Residue, Dilution factor 100 ([1]; SG samples of Examples 5 and 6 diluted with water, wet sieve, dilution factor 100) | Residue, Dilution factor 1000 ([1]; SG samples of Examples 5 and 6 diluted with water, wet sieve, dilution factor 1000) | Stability after dilution ([1]; after dilution, compared to other crystal forms) | Conversion to other crystalline modifications [2] | Solubility in acetone ([3]; acetone) | Solubility in ethanol ([3]; ethanol) | Solubility in hexane ([3]; hexane) | Solubility in methanol ([3]; methanol) | Solubility in water ([3]; water) | Insecticidal activity higher than other avermectin pesticides ([4]; compared with abamectin, doramectin, ivermectin) | Effective dose ([4]; very low doses)
1 | 4″-deoxy-4″-epi-methylamino avermectin B1a/B1b [Crystalline forms V] | No residue | No residue | extremely stable after dilution | does not convert to other crystalline modifications |  |  |  |  |  |  | 
2 | 4″-deoxy-4″-epi-methylamino avermectin B1a/B1b [Emamectin benzoate] |  |  |  |  | soluble | soluble | insoluble | soluble | slightly soluble | 1-3 orders of magnitude | 0.084-2 g/ha
